PMC10233092, “Selective Janus kinase 1 inhibition resolves inflammation and restores hair growth offering a viable treatment option for alopecia areata” (Skin Health and Disease, 2023)
Where “and” joins values, the source holds several entries; their conditions need not be identical. Identical values can stand only once.

Key:
LogD7.4 = assay type: physicochemical; conditions: pH 7.4
Excerpt: TABLE 2 In vitro and in vivo DMPK properties of Cmpd A, B & C | column: In vitro mouse & physical chemical properties / LogD7.4

IL‐4, STAT6‐Luc = experiment: IL-4-induced JAK-STAT6-luciferase assay in U937 monocytes; assay type: cell-based; conditions: Homo sapiens, U-937, interleukin at EC80
[1] = Plasma protein binding by equilibrium dialysis; assay type: in vitro ADME; conditions: mouse plasma
Excerpt: Detailed description in Supplementary materials.

JAK3 = target: T1, JAK3 (Homo sapiens, UniProt P52333); experiment: JAK3 kinase inhibition, Calliper assay; assay type: biochemical; conditions: physiological ATP concentration of 5 mM
T1 sequence (P52333 1-1124): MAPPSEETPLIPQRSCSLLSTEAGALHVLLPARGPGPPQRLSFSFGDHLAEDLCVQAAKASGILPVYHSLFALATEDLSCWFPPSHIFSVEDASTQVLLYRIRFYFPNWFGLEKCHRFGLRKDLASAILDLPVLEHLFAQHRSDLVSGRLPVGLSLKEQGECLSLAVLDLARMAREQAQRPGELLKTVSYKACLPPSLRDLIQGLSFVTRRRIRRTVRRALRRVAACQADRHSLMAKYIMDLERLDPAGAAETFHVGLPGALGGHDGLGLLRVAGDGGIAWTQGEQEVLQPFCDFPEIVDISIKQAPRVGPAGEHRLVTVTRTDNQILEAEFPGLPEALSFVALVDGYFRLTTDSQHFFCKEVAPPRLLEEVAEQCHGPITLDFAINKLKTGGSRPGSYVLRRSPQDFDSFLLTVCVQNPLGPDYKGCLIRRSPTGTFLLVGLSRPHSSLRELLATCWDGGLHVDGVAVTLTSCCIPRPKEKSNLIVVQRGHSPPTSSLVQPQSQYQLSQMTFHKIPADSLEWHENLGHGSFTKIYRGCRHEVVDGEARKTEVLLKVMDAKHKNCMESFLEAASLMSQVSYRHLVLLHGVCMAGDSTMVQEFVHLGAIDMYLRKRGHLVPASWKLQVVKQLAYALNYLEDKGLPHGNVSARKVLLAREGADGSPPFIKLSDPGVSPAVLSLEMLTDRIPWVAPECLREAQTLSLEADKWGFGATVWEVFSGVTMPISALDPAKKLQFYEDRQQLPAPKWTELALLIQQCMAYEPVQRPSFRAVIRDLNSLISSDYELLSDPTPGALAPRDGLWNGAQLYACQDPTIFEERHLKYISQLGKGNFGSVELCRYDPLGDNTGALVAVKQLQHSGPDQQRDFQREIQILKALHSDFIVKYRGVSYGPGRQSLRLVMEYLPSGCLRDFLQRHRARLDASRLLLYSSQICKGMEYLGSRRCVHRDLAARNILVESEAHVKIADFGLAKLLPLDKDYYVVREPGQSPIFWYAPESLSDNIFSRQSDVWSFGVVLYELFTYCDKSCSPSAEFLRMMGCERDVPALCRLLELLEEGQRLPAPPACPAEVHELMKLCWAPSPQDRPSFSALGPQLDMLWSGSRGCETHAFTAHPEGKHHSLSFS

[2] = system: C3H/HeJ mouse model of AA; experiment: Skin histopathology and hair follicle analysis in AA mice; assay type: in vivo; conditions: for skin inflammation, result in words: AA mice, oral daily servings (systemic exposure); for Follicle width / Number of hair follicles per section (hypodermal): individual mice and Mean
Protocol: A 1 cm^2 area of skin was excised from the right dorsal surface and fixed in 10% neutral buffered formalin for 24 h before processing and embedding in paraffin wax according to standard procedures. Vertical sectioning was chosen to allow for optimal detection of inflammatory cells whilst enabling follicular counts. 3 μm longitudinal sections were cut and stained with haematoxylin and eosin for histopathological analysis. Skin sections were scanned using an Aperio Scanscope. CD8 and NKG2D in situ hybridization (ISH) was carried out using the RNAScope technique[48] according to the manufacturer's protocols. Briefly, tissue sections were deparaffinised and incubated with epitope retrieval solution 2 for 15 min at 88°C followed by ACD protease for 10 min before hybridization with probe Mm‐Klrk1 (ACD, Cat.No.430808) and probe Mm‐Cd8a‐C2 (ACD, Cat.No. 401688‐C2) or duplex negative control probes Mm‐DapB (ACD, Cat.No. 320758). Bound probe was visualized following amplification with RNAScope 2.5 LS Duplex Reagent Kit‐(RED/BROWN) (ACD Cat.No. 322440). Staining was visualized by light microscopy. Number of hair follicles and hair follicle width were analyzed using ImageJ software edition ImageJ2. Images were imported using the bio‐format importer plug in. The number of follicles were counted using the cell counter plugin. All follicles on all sections in the dermal fat layer were counted. Follicle width was calculated with use of the circle tool to capture follicle area and from it calculate the width. All follicles on all sections in the dermal fat layer were included in the width analysis.

[3] = 8w off Tx (4 weeks oral treatment, then 8 weeks off)
[4] = 8w off Tx (4 weeks oral treatment, then 8 weeks off), mean
[5] = Systemic JAK1i, after 4 weeks oral treatment
[6] = Systemic JAK1i, after 4 weeks oral treatment, mean

## Cc1cnc(Nc2cc(N3C[C@@H]4C[C@H]3CN4C)cnc2F)nc1N[C@H](C)[C@H](C)CO [Cmpd B, (2S,3R)-3-{[2-({2-fluoro-5-[(1S,4S)-5-methyl-2,5-diazabicyclo[2.2.1]heptan-2-yl]pyridin-3-yl}amino)-5-methylpyrimidin-4-yl]amino}-2-methylbutan-1-ol]
LogD7.4
  logD: 1.5
IL‐4, STAT6‐Luc
  IC50: 110 nM
[1]
  f u, plasma: 0.74
JAK3
  IC50: > 30000 nM

## COCC(C(=O)Nc1cccc2c(-c3nc(Nc4cccc(S(C)(=O)=O)c4F)ncc3F)c[nH]c12)N1CCN(C)CC1 (stereo not shown) [Cmpd C]
LogD7.4
  logD: 2.6
IL‐4, STAT6‐Luc
  IC50: 24 nM
[2]
  skin inflammation, result in words: resolved inflammation
[1]
  f u, plasma: 0.11
JAK3
  IC50: > 30000 nM

## Cc1cnc(Nc2cccnc2F)nc1-c1c[nH]c2c(NC(=O)[C@@H](C)N3CCN(C)CC3)cccc12 [Cmpd A]
LogD7.4
  logD: 2.9
IL‐4, STAT6‐Luc
  IC50: 84 nM
[2]; [3]
  Follicle width: 36 μm and 26 μm and 38 μm and 31 μm and 35 μm
  Number of hair follicles per section (hypodermal): 51 and 595 and 35 and 9 and 44 and 48
[2]; [4]
  Follicle width: 32 μm
  Number of hair follicles per section (hypodermal): 130
[2]
  skin inflammation, result in words: resolution of inflammation in the skin
[2]; [5]
  Follicle width: 28 μm and 26 μm and 29 μm and 25 μm
  Number of hair follicles per section (hypodermal): 150 and 542 and 263 and 363 and 20 and 288
[2]; [6]
  Follicle width: 27 μm
  Number of hair follicles per section (hypodermal): 271
[1]
  f u, plasma: 0.038
JAK3
  IC50: > 30000 nM
